13 compounds from patent US20120142771A1, “BIPHENYLACETAMIDE DERIVATIVE” (Dainippon Sumitomo Pharma Co., Ltd., priority 2008, published 2012) can be followed below.

Data set [1] relates to 6 Hz psychomotor seizure model. Kind of data set: 6 Hz psychomotor seizure model. Format: in vivo, mice. As to conditions: mice; for ED50: Mus musculus, 6 Hz psychomotor seizure model, read-out: ED50; for ED50 / 6 Hz (Positive number/tested number): oral; for 6 Hz (Positive number/tested number): dose 100 mg/kg, 30 minutes or 1 hour after administration; for efficacy in 6 Hz psychomotor seizure model: oral administration at a dose of 100 mg/kg. On the procedure: Test 4: Test of 6 Hz Psychomotor Seizure Model
Similar to Tests 1 and 2, Test 4 evaluates the anticonvulsant action of medicaments. However, unlike Tests 1 and 2, the animal model used herein represents clinical phenotypes of seizures resistant to existing antiepileptic drugs. […] After 30 minutes or an hour of administration, their corneas were electrically stimulated (6 Hz, 32 mA, 3 seconds) to induce symptoms of myoclonus in their forelimbs, Straub tail, and immobility. […] To the control mice, 0.5% tragacanth solution, 0.5% methylcellulose solution, or olive oil was administered.

Data set [2] concerns maximum electroshock seizure (MES) model. Kind of data set: Maximum electroshock seizure (MES) model test. Format: in vivo, mice. As to conditions: for responders at 50 mg/kg / responders at 100 mg/kg: Mus musculus, po, 1 h, read-out: MES (positive number/tested number) (converted); for responders at 50 mg/kg / responders at 100 mg/kg / MES (positive number/tested number): Slc: ddY male mice, 3 per group, electrical stimulation 1 hour after administration, inhibition of hind limb extension; for anticonvulsant action in maximum electroshock seizure (MES) model test: mice, oral 50 or 100 mg/kg, 1 hour after administration. An outline of the steps: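 Male Slc: ddY mice (3 per group, 20-30 g) received compound orally at 50 or 100 mg/kg; controls got 0.5% tragacanth or 0.5% methylcellulose. One hour post-dose, corneal stimulation (60 Hz, 25 mA, 0.2 s) induced tonic hind-limb extensor convulsion.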

A further data set concerns Slc: ddY male mice. Kind of data set: Rotarod performance test (motor disturbance). The class given is in vivo. Conditions: 1 hour after administration, 10 mice. As for the experimental part:
Test 5: Rotarod Performance Test
Test 5 evaluates whether motor disturbance is caused by medicaments. On the day before the test, Slc: ddY male mice (body weight 20-30 g) were trained so that they could walk on a rotarod apparatus for 3 minutes without falling, wherein a cylinder of 4 cm diameter is rotated with a speed of 13 rotations per minute. Test compounds were orally administered to a group consisting of 10 mice. […] When the mice fell down within 100 seconds because of disturbed motor coordination, such mice were counted as positive. To the control mice, 0.5% methylcellulose solution was administered.
On the technique in general: The rotarod test checks motor coordination on a turning rod.

Data set [3] deals with subcutaneously pentetrazol-injected model (scPTZ). Kind of data set: Subcutaneously pentetrazol-injected model (scPTZ) test. As to conditions: pentetrazol 85 mg/kg s.c. after 1 hour; for responders at 50 mg/kg / responders at 100 mg/kg: Mus musculus, po, 1 h, read-out: scPTZ (positive number/tested number) (converted); for responders at 50 mg/kg / responders at 100 mg/kg / scPTZ (positive number/tested number): Slc: ddY male mice, 3 per group, observed 30 minutes for clonic convulsion; for anticonvulsant action in subcutaneously pentetrazol-injected model (scPTZ) test: mice, oral 50 or 100 mg/kg. The class given is in vivo, mice. An outline of the steps: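 Male Slc:ddY mice (20-30 g, 3 per group) dosed orally at 50 or 100 mg/kg; pentetrazol 85 mg/kg given subcutaneously 1 h later. Controls received 0.5% tragacanth or 0.5% methylcellulose vehicle.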

On to `NC(=O)Cc1cc(F)ccc1-c1ccccc1F` [Example 46, 2-(2′,4-difluorobiphenyl-2-yl)acetamide], for which, in data set [1], the median effective dose (ED50) – broadly, the midpoint of the dose-response relation – was 120 mg/kg. The “6 Hz (Positive number/tested number)” value in data set [1] is recorded as 5/10/100. The responders at 50 mg/kg was 66.7% in data set [2] (50 mg/kg oral) and 0% in data set [3] (50 mg/kg oral). Besides, the responders at 100 mg/kg in data set [2] (100 mg/kg oral) and in data set [3] (100 mg/kg oral) was 100% each time. Further, the “The rate of mice which fell within 100 seconds (%)” value in the data set on Slc: ddY male mice (100 mg/kg oral) came out at 20%; in the data set on Slc: ddY male mice (200 mg/kg oral), 20%; in the data set with Slc: ddY male mice (300 mg/kg oral), 60%; with Slc: ddY male mice (400 mg/kg oral) it was 90%.

For the compound `NC(=O)C(O)c1ccccc1-c1ccccc1` (stereo not shown) [Example 59, 2-(Biphenyl-2-yl)-2-hydroxyacetamide], in data set [1], the median effective dose (ED50) was determined as 91.5 mg/kg. Moreover, in data set [1], the “6 Hz (Positive number/tested number)” value is on record as 7/10/100. For the same compound, the responders at 50 mg/kg is 100% in data set [2] (50 mg/kg oral) and 0% in data set [3] (50 mg/kg oral). In addition, the responders at 100 mg/kg is 100% in data set [2] (100 mg/kg oral) and 66.7% in data set [3] (100 mg/kg oral).

As to `NC(=O)Cc1ccccc1-c1cc(F)cc(Cl)c1` [Example 80, 2-(3′-chloro-5′-fluorobiphenyl-2-yl)acetamide], in data set [1], the “6 Hz (Positive number/tested number)” value is on record as 4/5/100. For the same compound, the responders at 50 mg/kg in data set [2] (50 mg/kg oral) is 100%; in data set [3] (50 mg/kg oral), 66.7%. Besides, the responders at 100 mg/kg in data set [2] (100 mg/kg oral) and in data set [3] (100 mg/kg oral) was 100% each time. Besides, the “anticonvulsant action in maximum electroshock seizure (MES) model test” value (“anticonvulsant action … (MES) model test” for short) in data set [2] is given as “anticonvulsant action was observed”. Also, the “anticonvulsant action in subcutaneously pentetrazol-injected model (scPTZ) test” value (from here on “anticonvulsant action … (scPTZ) test”) in data set [3] is given as “anticonvulsant action was observed”.

As for `NC(=O)C(O)c1ccccc1-c1cccc(F)c1` (single isomer, unassigned) [Example 212, 2-(3′-Fluorobiphenyl-2-yl)-2-hydroxyacetamide], in data set [1], the “6 Hz (Positive number/tested number)” value was 1/5/100. Moreover, the “MES (positive number/tested number)” value in data set [2] (50 mg/kg oral) and in data set [2] (100 mg/kg oral) was 3/3 each time. Moreover, in data set [2], the “anticonvulsant action … (MES) model test” value is recorded as “anticonvulsant action was observed”. The “scPTZ (positive number/tested number)” value in data set [3] (50 mg/kg oral) and in data set [3] (100 mg/kg oral) was 2/3 each time. Further, the “anticonvulsant action … (scPTZ) test” value in data set [3] is “anticonvulsant action was observed”.

Turning to `NC(=O)C(O)c1ccccc1-c1cccc(F)c1` (single isomer, unassigned) [Example 211, 2-(3′-Fluorobiphenyl-2-yl)-2-hydroxyacetamide], in data set [1], the ED50 is 100 mg/kg. In addition, in data set [1], the “6 Hz (Positive number/tested number)” value was 5/10/100. Further, the responders at 50 mg/kg in data set [2] (50 mg/kg oral) was 100%; in data set [3] (50 mg/kg oral) it was 66.7%. Moreover, the responders at 100 mg/kg is 100% in data set [2] (100 mg/kg oral) and 66.7% in data set [3] (100 mg/kg oral). In addition, the “anticonvulsant action … (MES) model test” value in data set [2] is “anticonvulsant action was observed”. Further, the “anticonvulsant action … (scPTZ) test” value in data set [3] is “anticonvulsant action was observed”.

For the compound `NC(=O)Cc1ccc(F)cc1-c1ccccc1` [Example 39, 2-(5-fluorobiphenyl-2-yl)acetamide], the “6 Hz (Positive number/tested number)” value in data set [1] was 1/5/100. The responders at 50 mg/kg was 100% in data set [2] (50 mg/kg oral) and 33.3% in data set [3] (50 mg/kg oral). For the same compound, the responders at 100 mg/kg in data set [2] (100 mg/kg oral) is 100%; in data set [3] (100 mg/kg oral) it was 66.7%.

As for `NC(=O)C(O)c1cc(F)ccc1-c1cc(Cl)cc(Cl)c1` (stereo not shown) [Example 189, 2-(3′,5′-dichloro-4-fluorobiphenyl-2-yl)-2-hydroxyacetamide], the “6 Hz (Positive number/tested number)” value in data set [1] is reported as 3/5/100. For the same compound, the responders at 50 mg/kg in data set [2] (50 mg/kg oral) was 100%; in data set [3] (50 mg/kg oral), 33.3%. Also, the responders at 100 mg/kg in data set [2] (100 mg/kg oral) and in data set [3] (100 mg/kg oral) was 66.7% throughout.

As to `NC(=O)C(F)c1ccccc1-c1ccccc1` (single isomer, unassigned) [Example 210, 2-(Biphenyl-2-yl)-2-fluoroacetamide], in data set [1], the “6 Hz (Positive number/tested number)” value is reported as 4/5/100. Further, the “MES (positive number/tested number)” value is reported as 2/3 in data set [2] (50 mg/kg oral) and 3/3 in data set [2] (100 mg/kg oral). The “anticonvulsant action … (MES) model test” value in data set [2] is listed as “anticonvulsant action was observed”. The “scPTZ (positive number/tested number)” value in data set [3] (50 mg/kg oral) and in data set [3] (100 mg/kg oral) was 3/3 in each case. Moreover, in data set [3], the “anticonvulsant action … (scPTZ) test” value is reported as “anticonvulsant action was observed”.

As to `NC(=O)Cc1ccccc1-c1ccccc1` [Example 50, 2-(biphenyl-2-yl)acetamide], in data set [1], the “6 Hz (Positive number/tested number)” value is 3/5/100. Besides, in data set [2] (50 mg/kg oral), the responders at 50 mg/kg was 66.7%. The figures for the responders at 100 mg/kg in data set [2] (100 mg/kg oral) and in data set [3] (100 mg/kg oral) were 100% and 33.3%, respectively.

Take `NC(=O)C(O)c1ccccc1-c1ccccc1Cl` (stereo not shown) [Example 190, 2-(2′-chlorobiphenyl-2-yl)-2-hydroxyacetamide]: the “efficacy in 6 Hz psychomotor seizure model” value in data set [1] is reported as “potent efficacy”. Besides, in data set [1], the “6 Hz (Positive number/tested number)” value is listed as 5/5/100. Besides, the responders at 50 mg/kg in data set [2] (50 mg/kg oral) and in data set [3] (50 mg/kg oral) was 66.7% in each case. The figures for the responders at 100 mg/kg in data set [2] (100 mg/kg oral) and in data set [3] (100 mg/kg oral) were 100% and 66.7%, respectively. Moreover, in data set [2], the “anticonvulsant action … (MES) model test” value is “anticonvulsant action was observed”. In addition, in data set [3], the “anticonvulsant action … (scPTZ) test” value is on record as “anticonvulsant action was observed”.

For the compound `NC(=O)Cc1ccc(F)cc1-c1ccccc1F` [Example 41, 2-(2′,5-difluorobiphenyl-2-yl)acetamide], the “6 Hz (Positive number/tested number)” value in data set [1] is recorded as 4/5/100. Besides, the results for the responders at 50 mg/kg in data set [2] (50 mg/kg oral) and in data set [3] (50 mg/kg oral) were 100% and 66.7%, respectively. For the same compound, the responders at 100 mg/kg in data set [2] (100 mg/kg oral) is 100%; in data set [3] (100 mg/kg oral), 66.7%. Also, the “anticonvulsant action … (MES) model test” value in data set [2] is recorded as “anticonvulsant action was observed”. Moreover, the “anticonvulsant action … (scPTZ) test” value in data set [3] is reported as “anticonvulsant action was observed”.

Consider `NC(=O)C(O)c1ccccc1-c1cccc(F)c1` (stereo not shown) [Example 178, 2-(3′-fluorobiphenyl-2-yl)-2-hydroxyacetamide], for which the ED50 in data set [1] stood at 117 mg/kg. For the same compound, the “6 Hz (Positive number/tested number)” value in data set [1] is on record as 5/10/100. Further, the responders at 50 mg/kg was 66.7% in data set [2] (50 mg/kg oral) and 100% in data set [3] (50 mg/kg oral). Also, the responders at 100 mg/kg in data set [2] (100 mg/kg oral) and in data set [3] (100 mg/kg oral) was 100% throughout. In addition, the “anticonvulsant action … (MES) model test” value in data set [2] is listed as “anticonvulsant action was observed”. Further, the “anticonvulsant action … (scPTZ) test” value in data set [3] is “anticonvulsant action was observed”.

As for `NC(=O)[C@H](O)c1ccccc1-c1ccccc1` (single isomer, unassigned) [Example 207, 2-(Biphenyl-2-yl)-2R-hydroxyacetamide], in data set [1], the ED50 amounted to 86.6 mg/kg, the “efficacy in 6 Hz psychomotor seizure model” value was “potent efficacy” and the “6 Hz (Positive number/tested number)” value is listed as 7/10/100. Also, the responders at 50 mg/kg in data set [2] (50 mg/kg oral) was 66.7%. Further, in data set [2] (100 mg/kg oral), the responders at 100 mg/kg is 100%. Also, the “anticonvulsant action … (MES) model test” value in data set [2] is “anticonvulsant action was observed”. Besides, in data set [3] (50 mg/kg oral), the responders at 50 mg/kg is 66.7%. Besides, the responders at 100 mg/kg in data set [3] (100 mg/kg oral) is 66.7%. Moreover, the “anticonvulsant action … (scPTZ) test” value in data set [3] was “anticonvulsant action was observed”.
